Reference: patent US20220220095A1, “N-((HETEROARYL)METHYL)-1-TOSYL-1H-PYRAZOLE-3-CARBOXAMIDE DERIVATIVES AS Kv3 POTASSIUM CHANNEL ACTIVATORS FOR TREATING NEUROLOGICAL AND [sequence] DISORDERS” (H. Lundbeck A/S, priority 2019, published 2022)

Biological target: T1, hKv3.1b (Homo sapiens, UniProt P48547)
T1 construct: expressed in transfected cells
T1 sequence (P48547 1-585 isoform P48547-2): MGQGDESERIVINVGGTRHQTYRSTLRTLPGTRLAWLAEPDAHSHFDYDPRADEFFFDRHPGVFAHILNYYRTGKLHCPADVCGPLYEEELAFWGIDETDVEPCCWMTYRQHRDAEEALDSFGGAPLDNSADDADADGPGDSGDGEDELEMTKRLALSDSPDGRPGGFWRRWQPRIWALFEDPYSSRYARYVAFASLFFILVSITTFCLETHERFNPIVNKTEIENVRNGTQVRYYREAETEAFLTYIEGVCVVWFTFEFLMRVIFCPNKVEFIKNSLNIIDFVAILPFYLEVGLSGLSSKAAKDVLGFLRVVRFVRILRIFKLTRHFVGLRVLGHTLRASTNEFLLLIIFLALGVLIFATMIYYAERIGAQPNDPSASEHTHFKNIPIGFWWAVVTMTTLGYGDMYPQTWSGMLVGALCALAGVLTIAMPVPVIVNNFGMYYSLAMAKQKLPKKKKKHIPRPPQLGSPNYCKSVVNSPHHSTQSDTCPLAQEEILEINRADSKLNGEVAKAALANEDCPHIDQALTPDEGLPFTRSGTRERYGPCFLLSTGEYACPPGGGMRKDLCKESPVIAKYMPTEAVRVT
Assay: Automated whole-cell patch-clamp (QPatch-16x) on HEK-293 cells stably expressing hKv3.1b: shift of voltage threshold for channel activation
Assay type: cell-based
Settings: HEK-293 hKv3.1b; for ECdelta5mV: concentration needed to shift the threshold 5 mV, read out from fitted concentration response curve; for Max Delta threshold: maximum absolute shift of activation threshold to more hyperpolarized potentials at the tested concentrations (0.37, 1.11, 3.33, 10, 30 μM)
Description: HEK-293 cells stably expressing hKv3.1b was used for the experiments. Cells were cultured in DMEM medium supplemented with 10% Fetal Bovine Serum, 100 ug/mL Geneticidin and 100 u/mL Penicillin/Streptomycin (all from Gibco). Cells were grown to 80-90% confluency at 37° C. and 5% CO2. On the day of the experiment the cells were detached from the tissue culture flasks by Detachin and resuspended in serum free medium containing 25 mM HEPES and transferred to the cell hotel of the QPatch. The cells were used for experiments 0-5 hours after detachment.
Patch-clamp recordings were performed using the automated recording system QPatch-16x (Sophion Bioscience, Denmark). Cells were centrifuged, SFM removed and the cells were resuspended in extracellular buffer containing (in mM): 145 NaCl, 4 KCl, 1 MgCl2, 2 CaCl2, 10 HEPES and 10 glucose (added fresh on the day of experiment); pH 7.4 adjusted with NaOH, 305 mOsm adjusted with sucrose.
Single cell whole-cell recordings were carried out using an intracellular solution containing (in mM): 120 KCl, 32.25/10 KOH/EGTA, 5.374 CaCl2, 1.75 MgCl2, 10 HEPES, 4 Na2ATP (added fresh on the day), pH 7.2 adjusted with KOH, […] adjusted with sucrose. Cell membrane potentials were held at −80 mV and currents were evoked by voltage steps (200 ms duration) from −70 mV to +10 mV (in 10 mV increments).
Leak subtraction protocol was applied at −33% of the sweep amplitude, and serial resistance values were constantly monitored.
Any cell where serial resistance exceeded 25 MOhm, membrane resistance less than 200 MOhm or current size at −10 mV less than 200 pA was eliminated from the subsequent analysis.
Data analysis was performed using Sophion's QPatch assay software in combination with Microsoft Excel™ (Redmond, Wash., USA).
Current voltage relationships were plotted from the peak current at the individual voltage steps normalized to the vehicle addition at 10 mV. The voltage threshold for channel activation was defined as 5% activation of the peak current at 10 mV in presence of vehicle. The activity of the compounds was described as the ability to shift this current voltage relationship to more hyperpolarized potentials and is given as the maximum absolute shift possible at the tested concentrations (0.37, 1.11, 3.33, 10, 30 μM). Concentration response curves were plotted from the threshold shift at the individual concentrations and were fitted excel fit model 205 sigmodal dose-response model (fit=A+((B−A)/1+((C/x)^D)))), where A is the minimum value, B the maximum value, C the EC50 value and D the slope of the curve. The concentration needed to shift the threshold 5 mV was readout from this curve (ECdelta 5 mV).

| ECdelta5mV | Max Delta threshold | Structure (SMILES) |
| --- | --- | --- |
| 3400 nM | 15 mV | Cc1ccc(S(=O)(=O)n2ccc(C(=O)NCc3ncc(C)o3)n2)cc1 [Compound 30, 1-(4-methylbenzene-1-sulfonyl)-N-[(5-methyl-1,3-oxazol-2-yl)methyl]-1H-pyrazole-3-carboxamide] |
| 2800 nM | 12 mV | Cc1ccc(S(=O)(=O)n2ccc(C(=O)NCc3cnsc3)n2)cc1 [Compound 33, 1-(4-methylbenzene-1-sulfonyl)-N-[(1,2-thiazol-4-yl)methyl]-1H-pyrazole-3-carboxamide] |
| 4800 nM | 12 mV | Cn1ccc(CNC(=O)c2ccn(S(=O)(=O)c3ccc(F)cc3)n2)n1 [Compound 35, 1-(4-fluorobenzene-1-sulfonyl)-N-[(1-methyl-1H-pyrazol-3-yl)methyl]-1H-pyrazole-3-carboxamide] |
| 1600 nM | 21 mV | Cc1ccc(S(=O)(=O)n2ccc(C(=O)NCc3ccn(C)n3)n2)cc1 [Compound 39, 1-(4-methylbenzene-1-sulfonyl)-N-[(1-methyl-1H-pyrazol-3-yl)methyl]-1H-pyrazole-3-carboxamide] |
| 1400 nM | 25 mV | COc1ccc(S(=O)(=O)n2ccc(C(=O)NCc3ccn(C)n3)n2)cc1 [Compound 44, 1-(4-methoxybenzene-1-sulfonyl)-N-[(1-methyl-1H-pyrazol-3-yl)methyl]-1H-pyrazole-3-carboxamide] |
| 2800 nM | 15 mV | Cc1ccc(S(=O)(=O)n2ccc(C(=O)NCc3ncco3)n2)cc1 [Compound 45, 1-(4-methylbenzene-1-sulfonyl)-N-[(1,3-oxazol-2-yl)methyl]-1H-pyrazole-3-carboxamide] |
| 1800 nM | 22 mV | Cc1ccc(S(=O)(=O)n2ccc(C(=O)NCc3cn(C)nn3)n2)cc1 [Compound 46, 1-(4-methylbenzene-1-sulfonyl)-N-[(1-methyl-1H-1,2,3-triazol-4-yl)methyl]-1H-pyrazole-3-carboxamide] |
| 3300 nM | 16 mV | Cc1ccc(S(=O)(=O)n2ccc(C(=O)NCc3nncs3)n2)cc1 [Compound 47, 1-(4-methylbenzene-1-sulfonyl)-N-[(1,3,4-thiadiazol-2-yl)methyl]-1H-pyrazole-3-carboxamide] |
| 2000 nM | 19 mV | Cc1ccc(S(=O)(=O)n2ccc(C(=O)NCc3cocn3)n2)cc1 [Compound 49, 1-(4-methylbenzene-1-sulfonyl)-N-[(1,3-oxazol-4-yl)methyl]-1H-pyrazole-3-carboxamide] |
| 1700 nM | 24 mV | Cc1ccc(S(=O)(=O)n2ccc(C(=O)NCc3cnc(C)nc3)n2)cc1 [Compound 50, 1-(4-methylbenzene-1-sulfonyl)-N-[(2-methylpyrimidin-5-yl)methyl]-1H-pyrazole-3-carboxamide] |
| 3300 nM | 16 mV | Cc1ccc(S(=O)(=O)n2ccc(C(=O)NCc3cnoc3)n2)cc1 [Compound 51, 1-(4-methylbenzene-1-sulfonyl)-N-[(1,2-oxazol-4-yl)methyl]-1H-pyrazole-3-carboxamide] |
| 1500 nM | 16 mV | Cc1ccc(S(=O)(=O)n2ccc(C(=O)NCc3cscn3)n2)cc1 [Compound 52, 1-(4-methylbenzene-1-sulfonyl)-N-[(1,3-thiazol-4-yl)methyl]-1H-pyrazole-3-carboxamide] |

Second part, the compound before the results:

| Structure (SMILES) | ECdelta5mV | Max Delta threshold |
| --- | --- | --- |
| Cc1ccccc1S(=O)(=O)n1ccc(C(=O)NCc2cnn(C)c2)n1 [Compound 28, 1-(2-methylbenzene-1-sulfonyl)-N-[(1-methyl-1H-pyrazol-4-yl)methyl]-1H-pyrazole-3-carboxamide] | 2400 nM | 22 mV |
| Cc1cc(CNC(=O)c2ccn(S(=O)(=O)c3ccccc3C)n2)on1 [Compound 29, 1-(2-methylbenzene-1-sulfonyl)-N-[(3-methyl-1,2-oxazol-5-yl)methyl]-1H-pyrazole-3-carboxamide] | 3100 nM | 22 mV |
| Cc1cc(CNC(=O)c2ccn(S(=O)(=O)c3ccc(F)cc3)n2)on1 [Compound 31, 1-(4-fluorobenzene-1-sulfonyl)-N-[(3-methyl-1,2-oxazol-5-yl)methyl]-1H-pyrazole-3-carboxamide] | 4100 nM | 13 mV |
| Cc1ccc(S(=O)(=O)n2cc(C)c(C(=O)NCc3cnc(C)cn3)n2)cc1 [Compound 32, 4-methyl-1-(4-methylbenzene-1-sulfonyl)-N-[(5-methylpyrazin-2-yl)methyl]-1H-pyrazole-3-carboxamide] | 4300 nM | 12 mV |
| Cc1ccc(CNC(=O)c2ccn(S(=O)(=O)c3ccc(F)cc3)n2)nc1 [Compound 34, 1-(4-fluorobenzene-1-sulfonyl)-N-[(5-methylpyridin-2-yl)methyl]-1H-pyrazole-3-carboxamide] | 2800 nM | 17 mV |
| COc1ccc(S(=O)(=O)n2ccc(C(=O)NCc3ncc(C)o3)n2)cc1 [Compound 36, 1-(4-methoxybenzene-1-sulfonyl)-N-[(5-methyl-1,3-oxazol-2-yl)methyl]-1H-pyrazole-3-carboxamide] | 1500 nM | 17 mV |
| COc1ccc(S(=O)(=O)n2ccc(C(=O)NCc3ncc(C)cn3)n2)cc1 [Compound 37, 1-(4-methoxybenzene-1-sulfonyl)-N-[(5-methylpyrimidin-2-yl)methyl]-1H-pyrazole-3-carboxamide] | 2400 nM | 27 mV |
| COc1ccc(S(=O)(=O)n2ccc(C(=O)NCc3cc(C)no3)n2)cc1 [Compound 38, 1-(4-methoxybenzene-1-sulfonyl)-N-[(3-methyl-1,2-oxazol-5-yl)methyl]-1H-pyrazole-3-carboxamide] | 1100 nM | 21 mV |
| COc1ccc(S(=O)(=O)n2ccc(C(=O)NCc3ccc(C)cn3)n2)cc1 [Compound 40, 1-(4-methoxybenzene-1-sulfonyl)-N-[(5-methylpyridin-2-yl)methyl]-1H-pyrazole-3-carboxamide] | 2000 nM | 21 mV |
| COc1ccc(S(=O)(=O)n2ccc(C(=O)NCc3cnn(C)c3)n2)cc1 [Compound 41, 1-(4-methoxybenzene-1-sulfonyl)-N-[(1-methyl-1H-pyrazol-4-yl)methyl]-1H-pyrazole-3-carboxamide] | 1200 nM | 25 mV |
| COc1ccc(S(=O)(=O)n2ccc(C(=O)NCc3nc(C)no3)n2)cc1 [Compound 42, 1-(4-methoxybenzene-1-sulfonyl)-N-[(3-methyl-1,2,4-oxadiazol-5-yl)methyl]-1H-pyrazole-3-carboxamide] | 2000 nM | 18 mV |
| COc1ccc(S(=O)(=O)n2ccc(C(=O)NCc3cnccn3)n2)cc1 [Compound 43, 1-(4-methoxybenzene-1-sulfonyl)-N-[(pyrazin-2-yl)methyl]-1H-pyrazole-3-carboxamide] | 1600 nM | 25 mV |
| Cc1ccc(S(=O)(=O)n2ccc(C(=O)NCc3nc(C)no3)n2)cc1 [Compound 48, 1-(4-methylbenzene-1-sulfonyl)-N-[(3-methyl-1,2,4-oxadiazol-5-yl)methyl]-1H-pyrazole-3-carboxamide] | 1500 nM | 24 mV |
